Results from US7915050B2, “Regulatory genes for plant differentiation and growth, and use of the same” (National University Corporation Nagoya University, priority 2005, dated 2011).

Target: T1, AtGID1c (Arabidopsis thaliana, UniProt Q940G6)
T1 construct: made in house; host or cells: E. coli
T1 sequence (Q940G6 1-344): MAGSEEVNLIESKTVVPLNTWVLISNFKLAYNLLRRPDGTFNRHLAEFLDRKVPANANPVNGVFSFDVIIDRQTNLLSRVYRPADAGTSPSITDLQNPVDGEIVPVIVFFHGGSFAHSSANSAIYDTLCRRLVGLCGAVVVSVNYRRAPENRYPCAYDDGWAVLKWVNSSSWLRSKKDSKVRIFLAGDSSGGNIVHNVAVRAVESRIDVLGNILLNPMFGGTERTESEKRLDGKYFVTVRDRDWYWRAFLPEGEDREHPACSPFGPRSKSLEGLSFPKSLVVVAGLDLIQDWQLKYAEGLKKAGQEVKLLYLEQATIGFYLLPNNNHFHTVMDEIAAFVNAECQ
Assay: Competitive ability of GA in AtGID1-GA binding (AtGID1c)
Description: In the gibberellin-binding assay, [1,2,16,17-^3H4]16,17-dihydro-GA4 was used as a labeled GA4. In vitro GA-binding assays were carried out using previous methods with some modifications (Nakajima, M. et al., Biochem. Biophys. Res. Comm. 241, 782-786 (1997)). The purified recombinant GID1 protein (400 pmol) was dissolved in 300 μl of binding buffer [20 mM Tris-HCl (pH 7.6), 5 mM 2-mercaptoethanol, and 0.1 M NaCl], and incubated with 100 μl of ^3H4-16,17-dihydroGA4 (6 pmol) for two hours at 25° C., either in the absence of non-labeled GA4 (total binding) or in the presence of 833-fold excess non-labeled GA4 (total non-specific binding). Then, 0.1 ml of the reaction mixture was loaded onto a NAP-5 column (Amersham Biosciences, Piscataway, N.J.). The eluate of the binding buffer (0.6 ml) was discarded, the subsequent eluate (0.2 ml) was collected, and the radioactivity was measured. The specific binding activity, reflecting the number of displaceable GA binding sites, was calculated by subtracting the amount of nonspecific binding from the amount of total binding. The same as above can also be carried out for other GAs.
Specifically, the coding region of the AtGID1 gene was amplified by PCR using specific primers designed based on the full-length cDNA sequence of the AtGID1 gene and having appropriate restriction sites at each end. After confirmation by sequence analysis, each cDNA fragment was ligated into pET32a vector (Novagen/Merck Biosciences, Madison, Wis., USA) or pGEX-4T-2 vector (Amersham Biosciences, Piscataway, N.J., USA; currently, a part of GE Healthcare). The production of recombinant proteins was confirmed by SDS-PAGE; vector cassettes were used as negative controls. GA binding assays were carried out similarly as described above using [1,2,16,17-^3H4]-16,17-dihydro-GA4 (4.55 TBq/mmol), which was custom-made by DuPont/NEN (Boston, Mass., USA). Non-labeled GA4 (1.25 mM) was used to measure non-specific binding. Saturation experiments for the kinetic analysis were carried out using ten concentrations of 16,17-dihydro-GA4 within the range of 25 to 1,500 nM. Competition assays were performed using [1,2,16,17-^3H4]-16,17-dihydro-GA4 at 15 nM and five concentrations of the non-labeled competitor. Recombinant RGA and GAI proteins were prepared using pET32a by a previously described method.
The ligand selectivity of each AtGID1 was examined by observing the competitive inhibition, by the addition of GA to the assay mixtures, of the binding between the recombinant proteins and tritiated 16,17-dihydro-GA4 (Table 2). The ligand selectivity was evaluated using the concentration of GA that inhibits 50% of the tracer (15 nM) binding (IC50 value).

CC1C[C@]23C[C@H]1CCC2[C@]12CC[C@H](O)[C@](C)(C(=O)O1)[C@H]2[C@@H]3C(=O)O (some centres unmarked) [H2-GA4, 16,17-dihydro-GA4]
relative value, taking the value for GA4 as 100: (6) %
IC50 (tracer 15 nM, mean of at least two measurements): 5 µM
